Laboratory results: article PMC11847391, “Synthesis and biological activities of 3-aminoimidazo[1,2-α]pyridine compounds” (BMC Chemistry, 2025)

What was measured:
[1] = tested on: B16F10 murine melanoma cancer cell line; test: Cytotoxicity, Trypan blue exclusion test, B16F10; assay type: cell-based; details: for IC50: B16F10, 24 h, Trypan blue exclusion, mean ± SD of two independent experiments
Method: (§1) The synthesized compounds were assessed for their cytotoxic effects on three different cancer cell lines: the MCF-7 human breast cancer cell line (ATCC number: HTB-22), the HT-29 human colorectal adenocarcinoma cell line [HTB-38; American Type Culture Collection (ATCC), Manassas, VA, USA], and the B16F10 murine melanoma cancer cell line [CRL-6475; American Type Culture Collection (ATCC), Manassas, VA, USA], as well as the normal cell line mouse Embryonic Fibroblast-1 cell line (MEF-1; ATCC CRL-2214). The cell line was cultivated in high-glucose Dulbecco’s Modified Eagle Medium (DMEM) that is supplemented with L-glutamine, phenol red (Fuji Film Wako, Osaka, Japan), 10% fetal bovine serum (FBS; G.E. Healthcare, Chicago, IL, USA), and 1% penicillin/streptomycin (P/S) (Nacalai Tesque, Kyoto, Japan). Exponentially growing cells (1 × 10^5 cells/well) were seeded in a 24-well plate with sterile-filtered DMEM medium at 37 °C under 5% CO2 and incubated overnight. The cells were then treated with different concentrations of test compounds (5, 10, 50, and 100 µg/mL) and incubated for 24 h in a humidified atmosphere. After 24 h of incubation, viable cells were counted in each well using the Trypan blue exclusion test. All compounds were initially dissolved in DMSO, and the final concentration of DMSO was less than 1% in all of the considered concentrations of the applied compounds. The IC50 values from at least two independent experiments were compared with the control and expressed as the mean ± SD. The analysis of two groups was performed using the student t-test, and P-values < 0.05 were statistically significant.

[2] = tested on: mouse Embryonic Fibroblast-1 cell line (MEF-1); test: Cytotoxicity, Trypan blue exclusion test, normal MEF cells; assay type: cell-based; details: for IC50: normal cell line MEF, 24 h, Trypan blue exclusion, mean ± SD of two independent experiments
Method: as §1

[3] = tested on: MCF-7 human breast cancer cell line; test: Cytotoxicity, Trypan blue exclusion test, MCF-7; assay type: cell-based; details: for IC50: MCF-7, 24 h, Trypan blue exclusion, mean ± SD of two independent experiments
Method: as §1

[4] = tested on: HT-29 human colorectal adenocarcinoma cell line; test: Cytotoxicity, Trypan blue exclusion test, HT-29; assay type: cell-based; details: for IC50: HT-29, 24 h, Trypan blue exclusion, mean ± SD of two independent experiments
Method: as §1

B16F10 cell line = test: Morphological changes of treated B16F10 cells; assay type: cell-based, murine; details: high concentrations (≥ 50 µg/ml), versus untreated cancer cells
Excerpt: (§2) In comparison to the control (untreated cancer cells), the three cancer cell lines (MCF-7, HT-29, and B16F10) were investigated for morphological changes after being treated with the synthesized compounds 9–19.

HT-29 cell line = test: Morphological changes of treated HT-29 cells; assay type: cell-based, human; details: high concentrations (≥ 50 µg/ml), versus untreated cancer cells
Excerpt: as §2

| Structure (SMILES) | IC50 [1] [µM] | IC50 [2] [µM] | IC50 [3] [µM] | IC50 [4] [µM] | IC50 ([2]; Mus musculus, MEF) [µM] | IC50 ([3]; Homo sapiens, MCF7, 24 h) [µM] | IC50 ([4]; Homo sapiens) [µM] | further results |
| --- | --- | --- | --- | --- | --- | --- | --- | --- |
| COc1ccc(-c2nc3ccccn3c2Nc2ccc(Cl)cc2)c(OC)c1OC [C00001] | > 200 | > 200 | > 200 | > 200 | – | – | – | – |
| COc1ccc(-c2nc3ccccn3c2Nc2ccc(Cl)cc2)cc1OCc1ccccc1 [C00002] | > 200 | 18.5 ± 0.33 | > 200 | > 200 | – | – | – | – |
| Clc1ccc(Nc2c(-c3c[nH]c4ccccc34)nc3ccccn23)cc1 [C00003] | 39.2 ± 1.84 | 1.84 ± 0.83 | 20.47 ± 0.1 | 18.3 ± 1.22 | – | – | – | – |
| Clc1ccc(Nc2c(-c3ccco3)nc3ccccn23)cc1 [C00005] | 197 ± 14.4 | 32.93 ± 0.09 | 66.5 ± 37.9 | 48.3 ± 0.53 | – | – | – | – |
| Cc1cccc(-c2nc3ccccn3c2Nc2ccc(Cl)cc2)c1 [C00006] | – | – | 195 ± 19.9 | – | – | – | – | – |
| COc1cccc(-c2nc3ccccn3c2Nc2ccc(Cl)cc2)c1OC [C00007] | > 200 | > 200 | > 200 | > 200 | – | – | – | – |
| Clc1ccc(Nc2c(-c3ccc4ccccc4c3)nc3ccccn23)cc1 [C00008] | > 200 | > 200 | – | – | – | – | – | – |
| Clc1ccc(Nc2c(-c3ccsc3)nc3ccccn23)cc1 [C00009] | > 200 | > 200 | > 200 | > 200 | – | – | – | – |
| Fc1ccc(-c2nc3ccccn3c2Nc2ccc(Cl)cc2)c(F)c1 [C00010] | 14.39 ± 0.04 | 16.31 ± 0.08 | – | 10.1 ± 0.7 | – | – | – | – |
| FC(F)(F)c1ccc(-c2nc3ccccn3c2Nc2ccc(Cl)cc2)cc1 [C00011] | 195 ± 15.3 | 63.9 ± 2.33 | > 200 | 85.5 ± 18.8 | – | – | – | – |
| COc1ccc(-c2nc3ccccn3c2Nc2ccc(Cl)cc2)c(OC)c1OC [Compound 9, N-(4-chlorophenyl)−2-(2,3,4-trimethoxyphenyl)imidazo[1,2-a]pyridin-3-amine] | – | – | – | – | – | – | – | Cytotoxicity against B16F10 (in words) [1]: ineffective; Cytotoxicity against MCF-7 (in words) [3]: ineffective; Cytotoxicity against HT-29 (in words) [4]: ineffective |
| COc1ccc(-c2nc3ccccn3c2Nc2ccc(Cl)cc2)cc1OCc1ccccc1 [Compound 10, 2-(3-(Benzyloxy)−4-methoxyphenyl)-N-(4-chlorophenyl)imidazo[1,2-a]pyridin-3-amine] | – | – | – | – | – | – | – | Cytotoxicity against B16F10 (in words) [1]: ineffective; Cytotoxicity against MCF-7 (in words) [3]: ineffective; Cytotoxicity against HT-29 (in words) [4]: ineffective |
| Clc1ccc(Nc2c(-c3c[nH]c4ccccc34)nc3ccccn23)cc1 [Compound 11, N-(4-chlorophenyl)−2-(1 H-indol-3-yl)imidazo[1,2-a]pyridin-3-amine] | – | < 1.84 | – | – | 1.84 ± 0.83 | 20.47 ± 0.1 | 18.3 ± 1.22 | IC50 ([1]; Mus musculus, B16-F10, 24 h): 39.2 ± 1.84 µM |
| O=[N+]([O-])c1ccccc1-c1nc2ccccn2c1Nc1ccc(Cl)cc1 [Compound 12, N-(4-chlorophenyl)−2-(2-nitrophenyl)imidazo[1,2-a]pyridin-3-amine] | – | – | – | – | 40.5 ± 4.34 | 30.9 ± 14.4 | 4.15 ± 2.93 | IC50 ([1]; Mus musculus, B16-F10, 24 h): 64.8 ± 15.8 µM; Cytotoxicity against normal cells relative to HT-29 (fold lower) ([2]; MEF IC50 versus HT-29 IC50): tenfold; Morphological changes, B16F10 (B16F10 cell line): shrinkage and lost their original form; Morphological changes, HT-29 (HT-29 cell line): shrinkage and lost their original form |
| Clc1ccc(Nc2c(-c3ccco3)nc3ccccn23)cc1 [Compound 13, N-(4-chlorophenyl)−2-(furan-2-yl)imidazo[1,2-a]pyridin-3-amine] | – | – | > 45 | > 45 | 32.93 ± 0.09 | 66.5 ± 37.9 | 48.3 ± 0.53 | – |
| Cc1cccc(-c2nc3ccccn3c2Nc2ccc(Cl)cc2)c1 [Compound 14, N-(4-chlorophenyl)−2-(m-tolyl)imidazo[1,2-a]pyridin-3-amine] | – | – | – | – | > 200 | – | 44.45 ± 0.15 | IC50 ([1]; Mus musculus, B16-F10, 24 h): 21.8 ± 0.81 µM; Morphological changes, B16F10 (B16F10 cell line): shrinkage and lost their original form; Morphological changes, HT-29 (HT-29 cell line): shrinkage and lost their original form |
| COc1cccc(-c2nc3ccccn3c2Nc2ccc(Cl)cc2)c1OC [Compound 15, N-(4-chlorophenyl)−2-(2,3-dimethoxyphenyl)imidazo[1,2-a]pyridin-3-amine] | – | – | – | – | – | – | – | Cytotoxicity against B16F10 (in words) [1]: ineffective; Cytotoxicity against MCF-7 (in words) [3]: ineffective; Cytotoxicity against HT-29 (in words) [4]: ineffective |
| Clc1ccc(Nc2c(-c3ccc4ccccc4c3)nc3ccccn23)cc1 [Compound 16, N-(4-chlorophenyl)−2-(naphthalen-2-yl)imidazo[1,2-a]pyridin-3-amine] | – | – | – | – | – | 84 ± 3.37 | 93.08 ± 0.61 | Cytotoxicity against B16F10 (in words) [1]: inactive |
| Clc1ccc(Nc2c(-c3ccsc3)nc3ccccn23)cc1 [Compound 17, N-(4-chlorophenyl)−2-(thiophen-3-yl)imidazo[1,2-a]pyridin-3-amine] | – | – | – | – | – | – | – | Cytotoxicity against B16F10 (in words) [1]: ineffective; Cytotoxicity against MCF-7 (in words) [3]: ineffective; Cytotoxicity against HT-29 (in words) [4]: ineffective |
| Fc1ccc(-c2nc3ccccn3c2Nc2ccc(Cl)cc2)c(F)c1 [Compound 18, N-(4-chlorophenyl)−2-(2,4-difluorophenyl)imidazo[1,2-a]pyridin-3-amine] | < 15 | – | < 15 | < 15 | 16.31 ± 0.08 | 14.8 ± 0.2 | 10.1 ± 0.7 | IC50 ([1]; Mus musculus, B16-F10, 24 h): 14.39 ± 0.04 µM |
| FC(F)(F)c1ccc(-c2nc3ccccn3c2Nc2ccc(Cl)cc2)cc1 [Compound 19, N-(4-chlorophenyl)−2-(4-(trifluoromethyl)phenyl)imidazo[1,2-a]pyridin-3-amine] | – | – | – | – | 63.9 ± 2.33 | ≥ 200 | 85.5 ± 18.8 | IC50 ([1]; Mus musculus, B16-F10, 24 h): ≥ 200 µM |
| CC(=O)O[C@H]1C(=O)[C@@]2(C)[C@H]([C@H](OC(=O)c3ccccc3)[C@]3(O)C[C@H](OC(=O)[C@H](O)[C@@H](NC(=O)c4ccccc4)c4ccccc4)C(C)=C1C3(C)C)[C@]1(OC(C)=O)CO[C@@H]1C[C@@H]2O [Paclitaxel (Taxol), Paclitaxel, reference compound] | – | – | – | – | 17.2 | 0.00834 | 0.0166 | IC50 ([1]; Mus musculus, B16-F10, 24 h): 55.7 µM |
